Measurements from PubChem BioAssay (NCI).
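Five compound concentrations were applied to cells in 96-well plates for 48 hours; endpoints were derived by simple linear interpolation of the resulting dose-response curve. TGI: concentration producing complete growth inhibition.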

Assays:
Assay in all cases: NCI-60 cell line screen, 48 h
OVCAR-4 ovarian = tested on: OVCAR-4 ovarian
MOLT-4 leukemia = tested on: MOLT-4 leukemia
LOX IMVI melanoma = tested on: LOX IMVI melanoma
CAKI-1 renal = tested on: CAKI-1 renal
EKVX NSCLC = tested on: EKVX NSCLC
OVCAR-3 ovarian = tested on: OVCAR-3 ovarian
HCT-116 colon = tested on: HCT-116 colon
786-0 renal = tested on: 786-0 renal
SN12C renal = tested on: SN12C renal
TK-10 renal = tested on: TK-10 renal
HT29 colon = tested on: HT29 colon
NCI-H226 lung = tested on: NCI-H226 lung
SK-MEL-5 melanoma = tested on: SK-MEL-5 melanoma
SF-295 CNS = tested on: SF-295 CNS
UACC-62 melanoma = tested on: UACC-62 melanoma
SNB-19 CNS = tested on: SNB-19 CNS
LXFL 529 NSCLC = tested on: LXFL 529 NSCLC
UO-31 renal = tested on: UO-31 renal
A498 renal = tested on: A498 renal
KM12 colon = tested on: KM12 colon
NCI-H460 lung = tested on: NCI-H460 lung
NCI-H522 lung = tested on: NCI-H522 lung
RXF 393 renal = tested on: RXF 393 renal
HOP-62 NSCLC = tested on: HOP-62 NSCLC
A549 NSCLC = tested on: A549 NSCLC
HCT-15 colon = tested on: HCT-15 colon
K-562 leukemia = tested on: K-562 leukemia
U251 CNS = tested on: U251 CNS
RPMI-8226 leukemia = tested on: RPMI-8226 leukemia
HOP-92 NSCLC = tested on: HOP-92 NSCLC
SF-539 CNS = tested on: SF-539 CNS
IGROV1 ovarian = tested on: IGROV1 ovarian
XF 498 CNS = tested on: XF 498 CNS
RXF-631 renal = tested on: RXF-631 renal
SNB-78 CNS = tested on: SNB-78 CNS
SR leukemia = tested on: SR leukemia
SW-620 colon = tested on: SW-620 colon
SF-268 CNS = tested on: SF-268 CNS
M19-MEL melanoma = tested on: M19-MEL melanoma
SK-MEL-2 melanoma = tested on: SK-MEL-2 melanoma
NCI-H23 lung = tested on: NCI-H23 lung
KM20L2 colon = tested on: KM20L2 colon
CCRF-CEM leukemia = tested on: CCRF-CEM leukemia
OVCAR-8 ovarian = tested on: OVCAR-8 ovarian
SK-MEL-28 melanoma = tested on: SK-MEL-28 melanoma
UACC-257 melanoma = tested on: UACC-257 melanoma
COLO 205 colon = tested on: COLO 205 colon
HL-60(TB) leukemia = tested on: HL-60(TB) leukemia
M14 melanoma = tested on: M14 melanoma
OVCAR-5 ovarian = tested on: OVCAR-5 ovarian
ACHN renal = tested on: ACHN renal

With `COc1ccc2nccc(C3OC(=O)N4CCC(=O)CC34)c2c1` (stereo unspecified) the TGI (OVCAR-4 ovarian) was > 100 µM, the TGI (MOLT-4 leukemia) was > 100 µM and the TGI (LOX IMVI melanoma) was > 100 µM. For the same compound, the TGI (CAKI-1 renal) was > 100 µM, the TGI (EKVX NSCLC) was > 100 µM and the TGI (OVCAR-3 ovarian) was > 100 µM. The TGI (HCT-116 colon) was > 100 µM, the TGI (786-0 renal) was > 100 µM and the TGI (SN12C renal) was > 100 µM. For the same compound, the TGI (TK-10 renal) was > 100 µM, the TGI (HT29 colon) was > 100 µM and the TGI (NCI-H226 lung) was > 100 µM. The TGI (SK-MEL-5 melanoma) was > 100 µM, the TGI (SF-295 CNS) was > 100 µM and the TGI (UACC-62 melanoma) was > 100 µM. For the same compound, the TGI (SNB-19 CNS) was > 100 µM, the TGI (LXFL 529 NSCLC) was > 100 µM and the TGI (UO-31 renal) was > 100 µM. The TGI (A498 renal) was > 100 µM, the TGI (KM12 colon) was > 100 µM and the TGI (NCI-H460 lung) was > 100 µM. The TGI (NCI-H522 lung) was 28.7 µM, the TGI (RXF 393 renal) was > 100 µM and the TGI (HOP-62 NSCLC) was > 100 µM. For the same compound, the TGI (A549 NSCLC) was > 100 µM, the TGI (HCT-15 colon) was > 100 µM and the TGI (K-562 leukemia) was > 100 µM. For the same compound, the TGI (U251 CNS) was > 100 µM, the TGI (RPMI-8226 leukemia) was > 100 µM and the TGI (HOP-92 NSCLC) was > 100 µM. The TGI (SF-539 CNS) was > 100 µM, the TGI (IGROV1 ovarian) was > 100 µM and the TGI (XF 498 CNS) was > 100 µM. For the same compound, the TGI (RXF-631 renal) was > 100 µM, the TGI (SNB-78 CNS) was > 100 µM and the TGI (SR leukemia) was > 100 µM. For the same compound, the TGI (SW-620 colon) was > 100 µM, the TGI (SF-268 CNS) was > 100 µM and the TGI (M19-MEL melanoma) was > 100 µM. For the same compound, the TGI (SK-MEL-2 melanoma) was > 100 µM, the TGI (NCI-H23 lung) was > 100 µM and the TGI (KM20L2 colon) was > 100 µM. The TGI (CCRF-CEM leukemia) was > 100 µM, the TGI (OVCAR-8 ovarian) was > 100 µM and the TGI (SK-MEL-28 melanoma) was > 100 µM. For the same compound, the TGI (UACC-257 melanoma) was > 100 µM, the TGI (COLO 205 colon) was > 100 µM and the TGI (HL-60(TB) leukemia) was > 100 µM. For the same compound, the TGI (M14 melanoma) was > 100 µM, the TGI (OVCAR-5 ovarian) was > 100 µM and the TGI (ACHN renal) was > 100 µM.
